Legend:
Format in all cases: cell-based
Serratia marcescens = experiment: MIC against Gram-negative bacteria: Serratia marcescens; settings: for MIC against S. marcescens / MIC S. marcescens: 5×10^5 CFU/mL
Summary of the method: (§1)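 The recombinant human-originated EGF domain proteins were serially diluted two-fold against bacteria at 5×10^5 CFU/mL in LB medium. After shaken incubation at 37° C, the lowest concentration with no bacterial growth was recorded as the MIC.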

Aeromonas hydrophila = experiment: MIC against Gram-negative bacteria: Aeromonas hydrophila; settings: for MIC against A. hydrophila / MIC A. hydrophila: 5×10^5 CFU/mL
Summary of the method: as §1

Pseudomonas aeruginosa = experiment: MIC against Gram-negative bacteria: Pseudomonas aeruginosa; settings: for MIC against P. aeruginosa / MIC P. aeruginosa: 5×10^5 CFU/mL
Summary of the method: as §1

Enterobacter cloacae = experiment: MIC against Gram-negative bacteria: Enterobacter cloacae; settings: for MIC against E. cloacae / MIC E. cloacae: 5×10^5 CFU/mL
Summary of the method: as §1

Proteus vulgaris = experiment: MIC against Gram-negative bacteria: Proteus vulgaris; settings: for MIC against P. vulgaris / MIC P. vulgaris: 5×10^5 CFU/mL
Summary of the method: as §1

Citrobacter diversus = experiment: MIC against Gram-negative bacteria: Citrobacter diversus; settings: for MIC against C. diversus / MIC C. diversus: 5×10^5 CFU/mL
Summary of the method: as §1

Klebsiella pneumonia = experiment: MIC against Gram-negative bacteria: Klebsiella pneumonia; settings: for MIC against K. pneumonia / MIC K. pneumonia: 5×10^5 CFU/mL
Summary of the method: as §1

Proteus mirabilis = experiment: MIC against Gram-negative bacteria: Proteus mirabilis; settings: for MIC against P. mirabilis / MIC P. mirabilis: 5×10^5 CFU/mL
Summary of the method: as §1

E. coli DH5α = experiment: Antibacterial activity: MIC and growth curve against E. coli DH5α in 96-well plate; settings: minimal inhibitory concentration against E. coli DH5α; 96-well plate, 5×10^5 CFU/mL, 37° C., judged after 8 h
Summary of the method: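 MIC taken as lowest protein level with no bacterial growth, tracked by A600 every 30 min during 37 °C, 175 rpm culture. Two-fold protein series 50-12.5 μg/mL final, triplicate wells, against 5×10^5 CFU/mL of LB-washed mid-log cells.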

Moraxella catarrhalis = experiment: MIC against Gram-negative bacteria: Moraxella catarrhalis; settings: for MIC against M. catarrhalis / MIC M. catarrhalis: 5×10^5 CFU/mL
Summary of the method: as §1

E. coli BL21 = experiment: MIC against Gram-negative bacteria: E. coli BL21; settings: for MIC against E. coli BL21 / MIC E. coli BL21: 5×10^5 CFU/mL
Summary of the method: as §1

[1] = 10 h cultivation at 37° C., two-fold serial dilution

“PRT907 (PSVSCEVAAQRQGVDVARLCQHGGLCVDAGNTHHCRCQAGYTGSYCE; listed as Homo sapiens)” showed an MIC (Serratia marcescens; S. marcescens, 10 h cultivation at 37° C.) of 12.5 µg/mL, an MIC (Aeromonas hydrophila; A. hydrophila, 10 h cultivation at 37° C.) of 12.5 µg/mL and an MIC (Pseudomonas aeruginosa; P. aeruginosa, 10 h cultivation at 37° C.) of 12.5 µg/mL. The MIC (Enterobacter cloacae; E. cloacae, 10 h cultivation at 37° C.) was 12.5 µg/mL, the MIC (Proteus vulgaris; P. vulgaris, 10 h cultivation at 37° C.) was 25 µg/mL and the MIC (Citrobacter diversus; C. diversus, 10 h cultivation at 37° C.) was 12.5 µg/mL. The MIC (Klebsiella pneumonia; K. pneumonia, 10 h cultivation at 37° C.) was 25 µg/mL, the MIC (Proteus mirabilis; P. mirabilis, 10 h cultivation at 37° C.) was 25 µg/mL and the MIC (E. coli DH5α) was 25 µg/mL. For the same substance, the MIC (Moraxella catarrhalis; M. catarrhalis, 10 h cultivation at 37° C.) was 12.5 µg/mL and the MIC (E. coli BL21; E. coli BL21, 10 h cultivation at 37° C.) was 12.5 µg/mL.
In the case of “PRT468 (LCTPRCMNGGLCVTPGFCICPPGFYGVNCD; listed as Homo sapiens)”, the “MIC against S. marcescens” value (Serratia marcescens; 96-well plate, 37° C., 10 h) was 50 µg/mL, the “MIC against A. hydrophila” value (Aeromonas hydrophila; 96-well plate, 37° C., 10 h) was 12.5 µg/mL and the “MIC against P. aeruginosa” value (Pseudomonas aeruginosa; 96-well plate, 37° C., 10 h) was 25 µg/mL. For the same substance, the “MIC against E. cloacae” value (Enterobacter cloacae; 96-well plate, 37° C., 10 h) was 25 µg/mL, the “MIC against P. vulgaris” value (Proteus vulgaris; 96-well plate, 37° C., 10 h) was 12.5 µg/mL and the “MIC against C. diversus” value (Citrobacter diversus; 96-well plate, 37° C., 10 h) was 50 µg/mL. For the same substance, the “MIC against K. pneumonia” value (Klebsiella pneumonia; 96-well plate, 37° C., 10 h) was 50 µg/mL, the “MIC against P. mirabilis” value (Proteus mirabilis; 96-well plate, 37° C., 10 h) was 50 µg/mL and the MIC (E. coli DH5α) was 25 µg/mL. The “MIC against M. catarrhalis” value (Moraxella catarrhalis; 96-well plate, 37° C., 10 h) was 12.5 µg/mL and the “MIC against E. coli BL21” value (E. coli BL21; 96-well plate, 37° C., 10 h) was 12.5 µg/mL.
“PRT649 (DVDECLEPNVCANGDCSNLEGSYMCSCHKGYTRTPDHKHCR; listed as Homo sapiens)” was tested, and the “MIC S. marcescens” value (Serratia marcescens; 96-well plate, 37° C., 10 h) was 25 µg/mL, the “MIC A. hydrophila” value (Aeromonas hydrophila; 96-well plate, 37° C., 10 h) was 12.5 µg/mL and the “MIC P. aeruginosa” value (Pseudomonas aeruginosa; 96-well plate, 37° C., 10 h) was 50 µg/mL. The “MIC E. cloacae” value (Enterobacter cloacae; 96-well plate, 37° C., 10 h) was 50 µg/mL, the “MIC P. vulgaris” value (Proteus vulgaris; 96-well plate, 37° C., 10 h) was 50 µg/mL and the “MIC C. diversus” value (Citrobacter diversus; 96-well plate, 37° C., 10 h) was 50 µg/mL. For the same substance, the “MIC K. pneumonia” value (Klebsiella pneumonia; 96-well plate, 37° C., 10 h) was 12.5 µg/mL, the “MIC P. mirabilis” value (Proteus mirabilis; 96-well plate, 37° C., 10 h) was 25 µg/mL and the MIC (E. coli DH5α) was 50 µg/mL. For the same substance, the “MIC M. catarrhalis” value (Moraxella catarrhalis; 96-well plate, 37° C., 10 h) was 12.5 µg/mL and the “MIC E. coli BL21” value (E. coli BL21; 96-well plate, 37° C., 10 h) was 12.5 µg/mL.
For “PRT1099 (PSTVCGNEKTNLTCYNGGNCTEFQTELKCMCRPGFTGEWCE; listed as Homo sapiens)”, the “MIC S. marcescens” value (Serratia marcescens; [1]) was 12.5 µg/mL, the “MIC A. hydrophila” value (Aeromonas hydrophila; [1]) was 50 µg/mL and the “MIC P. aeruginosa” value (Pseudomonas aeruginosa; [1]) was 12.5 µg/mL. For the same substance, the “MIC E. cloacae” value (Enterobacter cloacae; [1]) was 12.5 µg/mL, the “MIC P. vulgaris” value (Proteus vulgaris; [1]) was 50 µg/mL and the “MIC C. diversus” value (Citrobacter diversus; [1]) was 25 µg/mL. For the same substance, the “MIC K. pneumonia” value (Klebsiella pneumonia; [1]) was 50 µg/mL, the “MIC P. mirabilis” value (Proteus mirabilis; [1]) was 25 µg/mL and the MIC (E. coli DH5α) was 12.5 µg/mL. The “MIC M. catarrhalis” value (Moraxella catarrhalis; [1]) was 12.5 µg/mL and the “MIC E. coli BL21” value (E. coli BL21; [1]) was 50 µg/mL.
For “PRT639 (DADECLLFGQEICKNGFCLNTRPGYECYCKQGTYYDPVKLQCF; listed as Homo sapiens)”, the “MIC S. marcescens” value (Serratia marcescens; 96-well plate, 37° C., 10 h) was 25 µg/mL, the “MIC A. hydrophila” value (Aeromonas hydrophila; 96-well plate, 37° C., 10 h) was 50 µg/mL and the “MIC P. aeruginosa” value (Pseudomonas aeruginosa; 96-well plate, 37° C., 10 h) was 12.5 µg/mL. For the same substance, the “MIC E. cloacae” value (Enterobacter cloacae; 96-well plate, 37° C., 10 h) was 12.5 µg/mL, the “MIC P. vulgaris” value (Proteus vulgaris; 96-well plate, 37° C., 10 h) was 50 µg/mL and the “MIC C. diversus” value (Citrobacter diversus; 96-well plate, 37° C., 10 h) was 25 µg/mL. The “MIC K. pneumonia” value (Klebsiella pneumonia; 96-well plate, 37° C., 10 h) was 50 µg/mL, the “MIC P. mirabilis” value (Proteus mirabilis; 96-well plate, 37° C., 10 h) was 25 µg/mL and the MIC (E. coli DH5α) was 12.5 µg/mL. For the same substance, the “MIC M. catarrhalis” value (Moraxella catarrhalis; 96-well plate, 37° C., 10 h) was 12.5 µg/mL and the “MIC E. coli BL21” value (E. coli BL21; 96-well plate, 37° C., 10 h) was 50 µg/mL.
With “PRT679 (DLNECAKPHLCGDGGFCINFPGHYKCNCYPGYRLKASRPPVCE; listed as Homo sapiens)” the “MIC S. marcescens” value (Serratia marcescens; 96-well plate, 37° C., 10 h) was 25 µg/mL, the “MIC A. hydrophila” value (Aeromonas hydrophila; 96-well plate, 37° C., 10 h) was 25 µg/mL and the “MIC P. aeruginosa” value (Pseudomonas aeruginosa; 96-well plate, 37° C., 10 h) was 25 µg/mL. The “MIC E. cloacae” value (Enterobacter cloacae; 96-well plate, 37° C., 10 h) was 12.5 µg/mL, the “MIC P. vulgaris” value (Proteus vulgaris; 96-well plate, 37° C., 10 h) was 50 µg/mL and the “MIC C. diversus” value (Citrobacter diversus; 96-well plate, 37° C., 10 h) was 50 µg/mL. The “MIC K. pneumonia” value (Klebsiella pneumonia; 96-well plate, 37° C., 10 h) was 25 µg/mL, the “MIC P. mirabilis” value (Proteus mirabilis; 96-well plate, 37° C., 10 h) was 25 µg/mL and the MIC (E. coli DH5α) was 12.5 µg/mL. For the same substance, the “MIC M. catarrhalis” value (Moraxella catarrhalis; 96-well plate, 37° C., 10 h) was 12.5 µg/mL and the “MIC E. coli BL21” value (E. coli BL21; 96-well plate, 37° C., 10 h) was 50 µg/mL.
For “PRT573 (CPCPDGPDSGRQFARSCYQDPVTLQLACVCDPGYIGSRCDDCASGYFGNPSEVGGSCQP; listed as Homo sapiens)”, the “MIC against S. marcescens” value (Serratia marcescens; 96-well plate, 37° C., 10 h) was 12.5 µg/mL, the “MIC against A. hydrophila” value (Aeromonas hydrophila; 96-well plate, 37° C., 10 h) was 12.5 µg/mL and the “MIC against P. aeruginosa” value (Pseudomonas aeruginosa; 96-well plate, 37° C., 10 h) was 25 µg/mL. For the same substance, the “MIC against E. cloacae” value (Enterobacter cloacae; 96-well plate, 37° C., 10 h) was 25 µg/mL, the “MIC against P. vulgaris” value (Proteus vulgaris; 96-well plate, 37° C., 10 h) was 50 µg/mL and the “MIC against C. diversus” value (Citrobacter diversus; 96-well plate, 37° C., 10 h) was 12.5 µg/mL. The “MIC against K. pneumonia” value (Klebsiella pneumonia; 96-well plate, 37° C., 10 h) was 12.5 µg/mL, the “MIC against P. mirabilis” value (Proteus mirabilis; 96-well plate, 37° C., 10 h) was 12.5 µg/mL and the MIC (E. coli DH5α) was 25 µg/mL. The “MIC against M. catarrhalis” value (Moraxella catarrhalis; 96-well plate, 37° C., 10 h) was 50 µg/mL and the “MIC against E. coli BL21” value (E. coli BL21; 96-well plate, 37° C., 10 h) was 12.5 µg/mL.
